{
  "source": "patent US20060009506A1",
  "about": "“Drugs for the treatment of neoplastic disorders” (Odyssey Thera, Inc., priority 2004, published 2006)",
  "key": {"U-87 MG cells": {"system": "U-87 MG cells", "test": "MTT proliferation assay, glioblastoma U-87 MG", "format": "cell-based", "conditions": "Homo sapiens, Tumor Cell: Glioblastoma (U-87 MG), 120 hours, concentrations tested in microM", "excerpt": "(§1) We first screened compounds derived from the known pharmacopeia and from a selected natural product collection using two types of assays: (a) measurements of post-translational modifications of proteins; (b) measurements of protein-protein interactions. For the purpose of measuring post-translational modifications of proteins, we used immunofluorescence methods combined with phospho-specific antibodies. For the purpose of quantifying and localizing protein complexes we used fluorescence methods based on protein-fragment complementation assays (PCA). ‘Hits’ from the initial screens were then tested for antiproliferative activity in up to 5 different human tumor cell lines. […] For drugs with antiproliferative activity in PC-3 cells, dose-response curves were generated to determine the EC50 for antiproliferative activity and additional tumor cell lines were tested to determine the breadth of activity. Methods for assay development, validation, screening, and testing of antiproliferative activity are described below.\n(§2) Cells were maintained in various media as follows: A549, LoVo and PC-3 (Ham's F12K medium with 2 mM L-glutamine and 1.5 g/L sodium bicarbonate), MIA PaCa-2 (Dulbecco's modified Eagle's medium with 4 mM L-glutamine and 4.5 g/L glucose), U87-MG (MEM+Earle's BSS). Medium for each cell line was supplemented with 10% FBS and […] Penecillin/Streptomycin. All cells were grown in incubators set at 37° C., 5% CO2. Thiazolyl Blue Tetrazolium Bromide (MTT) based proliferation assays were performed to assess the anti-proliferative activities of the compounds on these cells. Cells were seeded in 96 well plates at a density of 750 cells/well 24 hours prior to compound treatment. The cells were incubated with varying concentrations of compounds for 120 hours. […] Drug treatment was performed in 5 replicate wells. Background absorbance was established by wells containing medium but no cells. Vehicle (DMSO) only was used as control. MTT (Sigma-Aldrich, St. Louis, Mo.) was added to each well at a final concentration of 0.5 mg/ml. Following a 2 hour incubation at 37° C., medium in the wells was replaced with 0.15 ml DMSO. The plates were agitated for 15 min using a microtiter plate shaker."}, "cancer pathways": {"system": "cancer pathways", "test": "Screening of cancer pathways in human cells (PCA and phospho-immunofluorescence)", "format": "cell-based", "conditions": "cancer pathway in which the drug was active; screened at 10 micromolar, HEK293 cells", "excerpt": "as §1\nImmunofluorescence was performed on drug-treated cells using antibodies that specifically recognize phosphorylated forms of key signaling proteins. HEK293T cells were seeded in black-walled, poly-lysine coated 96-well plates (Greiner) at a density of 30,000/well. After 24 hours, cells in duplicate wells were treated with drugs. 100 ng/ml hEGF added to the cells during the last 5 min of drug treatment. The cells were rinsed once with PBS and fixed with 4% formaldehyde for 10 min. The cells were subsequently permeabilized with 0.25% Triton X-100 in PBS and incubated with 3% BSA for 30 min to block non-specific antibody binding. Each of the 4 sets of identically treated cells were then incubated with rabbit antibodies against phosphorylated CREB (Ser133), hsp27 (Ser82), pERK (T202/Y204) (Cell Signaling), or BSA in PBS. The cells were rinsed with PBS and incubated with Alexa488 conjugated goat anti-rabbit secondary antibody (Molecular Probes). Cell nuclei were stained with Hoechst33342 (Molecular Probes). Images were acquired using Discovery-1 High Content Imaging System (Molecular Devices). Background fluorescence due to nonspecific binding by the secondary antibody was established with the use of cells that were incubated with BSA/PBS and without primary antibodies. Fluorescence intensities were quantitated using Image J-based image analysis algorithm as described below.\nReporter fragments for PCA were generated by oligonucleotide synthesis (Blue Heron Biotechnology, Bothell, Wash.). First, oligonucleotides coding for polypeptide fragments YFP[1]and YFP[2] […] Next, PCR mutagenesis was used to generate the mutant fragments IFP[1] and IFP[2]. The IFP[1] fragment corresponds to YFP[1]-(F46L, F64L, M153T) and the IFP[2] fragment corresponds to YFP[2]-(V163A, S175G). […] The YFP[1], YFP[2], IFP[1] and IFP[2] fragments were amplified by PCR to incorporate restriction sites and a linker sequence, described below, in configurations that would allow fusion of a gene of interest to either the 5′- or 3′-end of each reporter fragment. The reporter-linker fragment cassettes were subcloned into a mammalian expression vector (pcDNA3.1Z, Invitrogen) that had been modified to incorporate the replication origin (oriP) of the Epstein Barr virus (EBV). […] Additionally, these vectors still retain the SV40 origin, allowing for episomal expression in cell lines expressing the SV40 large T antigen (e.g. HEK293T, Jurkat or COS). […] PCA fusion constructs were prepared for a large number of proteins known to participate in cellular pathways (Table 1 and Table 2). The full coding sequence for each gene of interest was amplified by PCR from a sequence-verified full-length cDNA."}, "cancer cells": {"system": "cancer cells", "test": "Antiproliferative activity against cancer cells (cell line not stated)", "format": "cell-based, human", "conditions": "general statement", "excerpt": "as §1\nCells were maintained in various media as follows: A549, LoVo and PC-3 (Ham's F12K medium with 2 mM L-glutamine and 1.5 g/L sodium bicarbonate), MIA PaCa-2 (Dulbecco's modified Eagle's medium with 4 mM L-glutamine and 4.5 g/L glucose), U87-MG (MEM+Earle's BSS). Medium for each cell line was supplemented with 10% FBS and […] Penecillin/Streptomycin. All cells were grown in incubators set at 37° C., 5% CO2. Thiazolyl Blue Tetrazolium Bromide (MTT) based proliferation assays were performed to assess the anti-proliferative activities of the compounds on these cells. Cells were seeded in 96 well plates at a density of 750 cells/well 24 hours prior to compound treatment. The cells were incubated with varying concentrations of compounds for 120 hours. Compound concentrations range from 0.03 to 100 microM (half log increments) except for alpha-Tomatine (0.001-100 microM, half log increments), Neriifolin (0.0002-100 microM) and Peruvoside (0.01-100 microM). Drug treatment was performed in 5 replicate wells. Background absorbance was established by wells containing medium but no cells. Vehicle (DMSO) only was used as control. MTT (Sigma-Aldrich, St. Louis, Mo.) was added to each well at a final concentration of 0.5 mg/ml. Following a 2 hour incubation at 37° C., medium in the wells was replaced with 0.15 ml DMSO. The plates were agitated for 15 min using a microtiter plate shaker. […] Mean absorbance values were calculated from 5 replicate wells of each drug treatment following subtraction of background absorbance from blank samples and plotted as a percentage of control."}, "MIA PaCa-2 cells": {"system": "MIA PaCa-2 cells", "test": "MTT proliferation assay, pancreatic carcinoma MIA PaCa-2", "format": "cell-based", "conditions": "Homo sapiens, Tumor Cell: Pancreatic (MIA PaCa-2), concentrations tested in microM", "excerpt": "as §1, §2"}, "A549 cells": {"system": "A549 cells", "test": "MTT proliferation assay, non-small cell lung carcinoma A549", "format": "cell-based, Human", "conditions": "Homo sapiens, Tumor Cell: NSCLC (A549), concentrations tested in microM", "excerpt": "as §1, §2"}, "PC-3 cells": {"system": "PC-3 cells", "test": "MTT proliferation assay, prostate adenocarcinoma PC-3", "format": "cell-based, Human", "conditions": "for IC50: Homo sapiens, Tumor Cell: Prostate (PC-3), MTT, 120 hours, concentrations tested in microM", "excerpt": "as §1, §2"}, "LoVo cells": {"system": "LoVo cells", "test": "MTT proliferation assay, colon adenocarcinoma LoVo", "format": "cell-based", "conditions": "Homo sapiens, Tumor Cell: Colon (LoVo), 120 hours, concentrations tested in microM", "excerpt": "as §1, §2"}},
  "data": [
    {"smiles": "CC(C)c1c(C(=O)Nc2ccccc2)c(-c2ccccc2)c(-c2ccc(F)cc2)n1CC[C@@H](O)C[C@@H](O)CC(=O)O", "note": "[Atorvastatin]", "values": [
      {"measurement": "IC50", "setting": "U-87 MG cells", "result": 4600, "unit": "nM"},
      {"measurement": "Pathway Activity", "setting": "cancer pathways", "result": "invasion/metastasis"},
      {"measurement": "Antiproliferative activity against cancer cells", "setting": "cancer cells", "result": "substantial antiproliferative activity"}
    ]},
    {"smiles": "COC(=O)[C@H]1[C@H]2C[C@H]3c4[nH]c5cc(OC)ccc5c4CCN3C[C@H]2C[C@@H](OC(=O)c2cc(OC)c(OC)c(OC)c2)[C@@H]1OC", "note": "[Isoreserpine]", "values": [
      {"measurement": "IC50", "setting": "U-87 MG cells", "result": 9020, "unit": "nM"},
      {"measurement": "Pathway Activity", "setting": "cancer pathways", "result": "apoptosis"},
      {"measurement": "IC50", "setting": "MIA PaCa-2 cells; MIA PaCa-2, 120 h", "result": 3920, "unit": "nM"},
      {"measurement": "IC50", "setting": "A549 cells; A549, 120 h", "result": 3950, "unit": "nM"},
      {"measurement": "IC50", "setting": "PC-3 cells", "result": 11700, "unit": "nM"},
      {"measurement": "Antiproliferative activity against cancer cells", "setting": "cancer cells", "result": "substantial antiproliferative activity"},
      {"measurement": "IC50", "setting": "LoVo cells", "result": 2730, "unit": "nM"}
    ]},
    {"smiles": "O=C(Nc1ccc([N+](=O)[O-])cc1Cl)c1cc(Cl)ccc1O", "note": "[Niclosamide]", "values": [
      {"measurement": "IC50", "setting": "U-87 MG cells", "result": 810, "unit": "nM"},
      {"measurement": "Pathway Activity", "setting": "cancer pathways", "result": "apoptosis"},
      {"measurement": "IC50", "setting": "MIA PaCa-2 cells; MIA PaCa-2, 120 h", "result": 590, "unit": "nM"},
      {"measurement": "IC50", "setting": "A549 cells; A549, 120 h", "result": 660, "unit": "nM"},
      {"measurement": "IC50", "setting": "PC-3 cells", "result": 1330, "unit": "nM"},
      {"measurement": "Antiproliferative activity against cancer cells", "setting": "cancer cells", "result": "substantial antiproliferative activity"},
      {"measurement": "IC50", "setting": "LoVo cells", "result": 450, "unit": "nM"}
    ]},
    {"smiles": "CC(C)(C)c1ccc(C(O)CCCN2CCC(C(O)(c3ccccc3)c3ccccc3)CC2)cc1", "note": "(stereo not drawn) [Terfenadine]", "values": [
      {"measurement": "IC50", "setting": "U-87 MG cells", "result": 380, "unit": "nM"},
      {"measurement": "Pathway Activity", "setting": "cancer pathways", "result": "invasion/metastasis"},
      {"measurement": "IC50", "setting": "MIA PaCa-2 cells; MIA PaCa-2, 120 h", "result": 350, "unit": "nM"},
      {"measurement": "IC50", "setting": "A549 cells; A549, 120 h", "result": 550, "unit": "nM"},
      {"measurement": "IC50", "setting": "PC-3 cells", "result": 1320, "unit": "nM"},
      {"measurement": "Antiproliferative activity against cancer cells", "setting": "cancer cells", "result": "substantial antiproliferative activity"},
      {"measurement": "IC50", "setting": "LoVo cells", "result": 990, "unit": "nM"}
    ]},
    {"smiles": "C[C@H]1CC[C@]2(NC1)O[C@H]1C[C@H]3[C@@H]4CC[C@H]5C[C@@H](O[C@@H]6O[C@H](CO)[C@H](O[C@@H]7O[C@H](CO)[C@@H](O)[C@H](O[C@@H]8OC[C@@H](O)[C@H](O)[C@H]8O)[C@H]7O[C@@H]7O[C@H](CO)[C@@H](O)[C@H](O)[C@H]7O)[C@H](O)[C@H]6O)CC[C@]5(C)[C@H]4CC[C@]3(C)[C@H]1[C@@H]2C", "note": "[Tomatine]", "values": [
      {"measurement": "Pathway Activity", "setting": "cancer pathways", "result": "invasion/metastasis"},
      {"measurement": "IC50", "setting": "MIA PaCa-2 cells; 120 hours", "result": 100, "unit": "nM"},
      {"measurement": "IC50", "setting": "A549 cells; 120 hours", "result": 60, "unit": "nM"},
      {"measurement": "Antiproliferative activity against cancer cells", "setting": "cancer cells", "result": "substantial antiproliferative activity"}
    ]},
    {"smiles": "Cc1cccc(Nc2cc(Cl)nc(SCC(=O)O)n2)c1C", "note": "[WY-14643]", "values": [
      {"measurement": "Antiproliferative activity in the PC-3 assay", "setting": "PC-3 cells; FIG. 1, compared to DMSO control", "result": "inactive"}
    ]},
    {"smiles": "CC1(C)CCC2=C(O1)c1ccccc1C(=O)C2=O", "note": "[beta-Lapachone]", "values": [
      {"measurement": "IC50", "setting": "U-87 MG cells", "result": 860, "unit": "nM"},
      {"measurement": "Pathway Activity", "setting": "cancer pathways", "result": "apoptosis"},
      {"measurement": "IC50", "setting": "MIA PaCa-2 cells; MIA PaCa-2, 120 h", "result": 770, "unit": "nM"},
      {"measurement": "IC50", "setting": "A549 cells; A549, 120 h", "result": 230, "unit": "nM"},
      {"measurement": "IC50", "setting": "PC-3 cells", "result": 630, "unit": "nM"},
      {"measurement": "Antiproliferative activity against cancer cells", "setting": "cancer cells", "result": "substantial antiproliferative activity"},
      {"measurement": "IC50", "setting": "LoVo cells", "result": 1400, "unit": "nM"}
    ]}
  ]
}
